From ChEMBL document CHEMBL5724562, “Toxicity screen in isolated B cell assay results for EUbOPEN Chemogenomics Library” (2024)

System: B cell
Test: Cytotoxicity screening of chemical probes in isolated B cell assay. Data is normalized to DMSO control, the cell viability average of replicates are reported. Reduction of ATP level more than 20% indicate compromised cell health status.
Conditions: human

With `CN1CCN(C(=O)C(C)(C)c2ccc(C(=O)Nc3cn4cc(-c5ccncc5)ccc4n3)cc2)CC1` [T3-CLK] the “Cell Viability” value (1 µM) was 73.6988%.
For `COCCOc1nc(-c2ccc(Cl)nc2)nc2c1CN(C(=O)c1ncn3ccccc13)CC2` [THPP-1], the “Cell Viability” value (0.1 µM) was 97.9791%.
In the case of `COCc1nc2cnc3cc(-c4c(C)noc4C)c(OC[C@H]4CCNC4)cc3c2n1[C@H](C)c1ccccc1` [GSK778], the “Cell Viability” value (1 µM) is reported as 95.4048%.
For `Cc1c(Nc2ccc(S(=O)(=O)N3CCN(C)CC3)cc2F)nc2ccc(-c3cnn(C4CC4)c3)cn2c1=O`, the “Cell Viability” value (1 µM) was 96.0793%.
For `CO[C@@H](C)c1c(Nc2ccc([C@H](N(C)C(=O)C3CCS(=O)(=O)CC3)C(F)(F)F)cc2)cnc2cc(Cl)nn12` [NVS-MALT1], the “Cell Viability” value (1 µM) was 90.4509%.
In the case of `O=C(O)Cc1ccccc1Nc1c(Cl)cccc1Cl` [DICLOFENAC], the “Cell Viability” value (1 µM) is reported as 103.39%.
With `Cc1ccc(Cn2nc(C(=O)N[C@@H]3C(C)(C)[C@@H]4CC[C@@]3(C)C4)cc2-c2ccc(Cl)c(C)c2)cc1` the “Cell Viability” value (1 µM) was 95.8945%.
`COc1ccc(CCc2nc3cc(-c4c(C)noc4C)ccc3n2C[C@H](C)N2CCOCC2)cc1Cl` was tested, and the “Cell Viability” value (1 µM) was 94.0053%.
`CC1(C)C(N)=Nc2cc(OCCCN3Cc4ccc(OCCc5cn(CC(=O)N6CCC(CCN7CCCC7)CC6)nn5)cc4C3)c(OCC3CC3)cc21` was tested, and the “Cell Viability” value (1 µM) was 92.0303%.
With `Cl.Cl.NC1(c2ccc(-c3nc4ccn5c(=O)[nH]nc5c4cc3-c3ccccc3)cc2)CCC1` the “Cell Viability” value (1 µM) was 85.9288%.
With `O=C(NCc1ccc(F)cc1)N1CCN2C(=O)OC(c3ccccc3)(c3ccccc3)C2C1` (configuration not stated) the “Cell Viability” value (1 µM) was 104.95%.
In the case of `Cc1cc2c(-c3ccco3)cnc(N[C@@H]3CCN(C)C[C@H]3C(=O)NC3CCCCC3)c2[nH]c1=O` [GSK789], the “Cell Viability” value (1 µM) is reported as 93.8199%.
With `CSc1cc2c(cc1C(F)(F)F)N(C(=O)Nc1cccnc1)CC2` the “Cell Viability” value (1 µM) was 99.9626%.
`COc1cc(-c2cn([C@H]3CCc4c(F)cccc4N(CC(F)(F)F)C3=O)nn2)ccc1-n1cnc(C)c1` was tested, and the “Cell Viability” value (1 µM) was 98.1038%.
`Cn1cnc2c(F)c(Nc3ccc(Br)cc3Cl)c(C(=O)NOCCO)cc21` [SELUMETINIB] was tested, and the “Cell Viability” value (1 µM) was 92.6054%.
`CCOC(=O)CCNc1cc(N2CCc3ccccc3CC2)nc(-c2ccccn2)n1` was tested, and the “Cell Viability” value (1 µM) was 95.6308%.
`O=C(NCCCN1CCOC1=O)c1cnc(NCc2cc(Br)ccc2Br)nc1NC1CCCC1` was tested, and the “Cell Viability” value (1 µM) was 100.266%.
`Cl.O=C([C@@H](Cc1cccc(C(F)(F)F)c1)NS(=O)(=O)c1cc(F)c2c(c1)CCNC2)N1CCCC1` was tested, and the “Cell Viability” value (1 µM) was 98.8503%.
With `CCN(C(=O)CO)[C@H]1CN(/C(=N\C#N)Nc2cccc(OC(F)F)c2)N=C1c1ccc(Cl)c(Cl)c1` the “Cell Viability” value (1 µM) was 100.495%.
With `CN1CCN(c2ccc(-c3cccc(CN4CCOCC4)c3)cc2NC(=O)c2c[nH]c(=O)cc2C(F)(F)F)CC1` the “Cell Viability” value (1 µM) was 99.6552%.
With `O[C@]1(C(F)(F)F)CCCC[C@H]1Nc1ccc(F)cc1` [BAY-390] the “Cell Viability” value (0.1 µM) was 101.834%.
`C=CC(=O)N1CCC[C@@H](n2nc(-c3ccc(Oc4ccccc4)cc3)c3c(N)ncnc32)C1` [IBRUTINIB] was tested, and the “Cell Viability” value (1 µM) was 86.9807%.
With `CN(C)[C@@H]1CCN(c2cc(-c3ccccc3)nc3ccnn23)C1` [(R)-ZINC-3573] the “Cell Viability” value (1 µM) was 100.756%.
`Cc1nc[nH]c1CCN.Cl` was tested, and the “Cell Viability” value (1 µM) was 99.4273%.
With `CC(=O)N1CCC(c2ccc(C(=O)NC(=N)N)cc2C(F)(F)F)CC1` [BI 9627] the “Cell Viability” value (1 µM) was 95.0864%.
With `O=C1c2ccc(Nc3ccc(F)cc3F)cc2CCc2ccc(OC[C@H](O)CO)cc21` [Skepinone-L] the “Cell Viability” value (1 µM) was 96.8594%.
With `CC1(C)[C@H]2C[C@H](C/C=C\CCCC(=O)O)[C@@H](NC(=O)c3csc4ccc(O)cc34)[C@@H]1C2` the “Cell Viability” value (1 µM) was 100.906%.
`O=C(NCCN1CCOCC1)c1ccc2c(c1)C(=O)c1ccc(Nc3ccc(F)c(NC(=O)c4ccccc4)c3)cc1CC2` [FS-694] was tested, and the “Cell Viability” value (1 µM) was 91.9931%.
`COc1ccc(C(=O)N2CCN(C(=O)/C=C/c3ccc(Br)cc3)CC2)cc1` was tested, and the “Cell Viability” value (1 µM) was 97.705%.
`CC(C)(O)c1cncc(-c2nc3ccc(F)cc3n2C2CC2)c1` [MSD-CYP11B2] was tested, and the “Cell Viability” value (1 µM) was 100.571%.
For `Clc1cc2c(NC3CCCC3)nnc(-c3ccncc3)c2cc1Cl`, the “Cell Viability” value (1 µM) was 99.0979%.
With `CC(=O)Nc1c(C(C)=O)c(=O)n(C)c2nc(-c3ccc(Cl)cc3Cl)c(-c3ccc(Cl)cc3)cc12` [NAPHTHYRIDINONE] the “Cell Viability” value (1 µM) was 96.2894%.
With `c1ccc2oc(-c3csc(C4CCN(Cc5nc6ncccc6[nH]5)CC4)n3)cc2c1` the “Cell Viability” value (1 µM) was 83.0928%.
`Cl.O=c1c2cccn2c2ccccc2n1CCCN1CCC(c2ccc(Cl)cc2)CC1` was tested, and the “Cell Viability” value (1 µM) was 96.0052%.
`CNC(=O)c1cc(C(=O)NC2CC2)cn(Cc2ccccc2)c1=O` [GSK620] was tested, and the “Cell Viability” value (1 µM) was 102.307%.
For `C[C@H](c1ccnc(Nc2nc3ccc(-c4cc(N(C)C)ncn4)cc3[nH]2)c1)N1CCN(C(=O)CC(F)(F)F)CC1` [BAY-985], the “Cell Viability” value (1 µM) was 78.1838%.
With `COc1ccc2c(O[C@@H]3C[C@H]4C(=O)N[C@]5(C(=O)O)CC5/C=C\CCCCC[C@H](NC(=O)OC5CCCC5)C(=O)N4C3)cc(-c3csc(NC(=O)C(C)C)n3)nc2c1C` (some centres not stated) [BI 1230] the “Cell Viability” value (1 µM) was 99.1645%.
With `Cc1ccccc1Oc1cc(-n2c(=O)cc(C(F)(F)F)[nH]c2=O)c2ccccc2c1Cl` [BAY-069] the “Cell Viability” value (1 µM) was 101.552%.
With `O=C(O)c1n[nH]c2c1C[C@H]1C[C@@H]21` the “Cell Viability” value (1 µM) was 98.0706%.
For `C[C@@H]1CN(Cc2ccc(F)cc2)CCN1C(=O)COc1ccc(Cl)cc1NC(N)=O` [BX 471 FREE BASE], the “Cell Viability” value (1 µM) was 91.1693%.
In the case of `CCOc1nc2cccc(C(=O)O)c2n1Cc1ccc(-c2ccccc2-c2nnn[nH]2)cc1`, the “Cell Viability” value (1 µM) is reported as 101.389%.
In the case of `Cc1c[nH]c2nccc(Oc3c(F)cc(Nc4cc(Cl)nc(N)n4)cc3F)c12` [BAY-549], the “Cell Viability” value (0.1 µM) is reported as 99.4175%.
`COc1cc2c(cc1OCCCN1CCCC1)N=C(N)C21CCC1` was tested, and the “Cell Viability” value (1 µM) was 98.8274%.
With `CC(=O)Nc1cccc(-n2c(=O)n(C3CC3)c(=O)c3c(Nc4ccc(I)cc4F)n(C)c(=O)c(C)c32)c1` [TRAMETINIB] the “Cell Viability” value (1 µM) was 85.5796%.
With `CC(=O)c1cc(-c2cc(C(=O)NC3CC3)ccc2C)c2ncccn12` the “Cell Viability” value (1 µM) was 95.0596%.
With `CN1C(=O)[C@@H](N2CCc3c(nn(Cc4ccccc4)c3Br)C2=O)COc2ccccc21` [TP-030-2] the “Cell Viability” value (0.1 µM) was 101.749%.
For `CN(C)CC#Cc1ccc(OCCCc2sc(N3CCc4cccc(C(=O)Nc5nc6ccccc6s5)c4C3)nc2C(=O)O)c(F)c1` [A-1155463], the “Cell Viability” value (1 µM) was 88.7648%.
With `Clc1cccc(-c2nnnn2Cc2cccnc2)c1Cl` the “Cell Viability” value (1 µM) was 97.1983%.
In the case of `CC(C)Cc1ccc([C@@H](C)C(=O)NS(C)(=O)=O)cc1` [REPARIXIN], the “Cell Viability” value (1 µM) is reported as 94.4279%.
For `CCCCN(Cc1ccccc1)C(=O)c1ccc(S(=O)(=O)Nc2ccccc2)cc1`, the “Cell Viability” value (1 µM) was 99.9127%.
`CCOCCn1cc(C(=O)Nc2ccc(-n3nc(-c4cccnc4)cc3C(F)(F)F)cn2)ccc1=O` [BI 1935] was tested, and the “Cell Viability” value (1 µM) was 94.8333%.
For `C[C@H]1CC(=O)Nc2cc(C(=O)NCCC3CC3)ccc2N1C(=O)N1CC2CC2C1` (some centres not stated), the “Cell Viability” value (1 µM) was 100.735%.
With `Cc1cc(C)cc([C@@H]2c3cc(C)ccc3NC(=O)CN2C(=O)c2ccc(Br)s2)c1` the “Cell Viability” value (1 µM) was 95.4438%.
In the case of `O=C(NCc1ncc(C(F)(F)F)cc1Cl)c1ccc2c(c1)C1(CCS(=O)(=O)CC1)[C@H](C1CC1)N2S(=O)(=O)c1ccc(F)cc1` [BAY-784], the “Cell Viability” value (0.1 µM) is reported as 98.8405%.
`c1cc(OCCCN2CCCCC2)ccc1CN1CCCCC1` [JNJ-5207852] was tested, and the “Cell Viability” value (1 µM) was 101.482%.
With `Cl.Clc1ccc2nsnc2c1NC1=NCCN1` [TIZANIDINE HYDROCHLORIDE] the “Cell Viability” value (1 µM) was 103.384%.
With `CS(=O)(=O)N1CCCC(NC(=O)[C@H](CCC2CCCCC2)NC(=O)c2ccc(CNC(=O)c3cnc4ccccn34)cc2)C1` (some centres not stated) [SR-302] the “Cell Viability” value (0.1 µM) was 99.1038%.
With `CS(=O)(=O)c1cc(C2(NC(=O)c3cncc4c3cnn4-c3ccc(F)cc3)CC2)ccn1` [BI 639667] the “Cell Viability” value (2 µM) was 99.2983%.
`Cc1c(C(=O)NN2CCCCC2)nn(-c2ccc(Cl)cc2Cl)c1-c1ccc(Cl)cc1` [RIMONABANT] was tested, and the “Cell Viability” value (1 µM) was 99.45%.
For `Cc1nnc2c3ccccc3c(N[C@@H](C)[C@H](c3ccccc3)N(C)C)nn12`, the “Cell Viability” value (1 µM) was 95.5642%.
With `CCCCC(=O)N(Cc1ccc(-c2ccccc2-c2nnn[nH]2)cc1)[C@H](C(=O)O)C(C)C` the “Cell Viability” value (1 µM) was 103.145%.
`Cc1cnc(-c2cc(Cl)ccc2F)cc1-n1c(=O)n(CC(N)=O)c2cnccc21` [TP-008] was tested, and the “Cell Viability” value (1 µM) was 103.993%.
`CN1CCN(c2cnc3c(C4CCN(C(=O)c5ccc(OC(F)(F)F)cc5N)CC4)ncnc3c2)CC1` [BAY-885] was tested, and the “Cell Viability” value (1 µM) was 96.4414%.
For `O=c1nc(-c2ccccn2)sc2ccccc12` [BTZO-1], the “Cell Viability” value (1 µM) was 96.3183%.
In the case of `Nc1nc(NCc2ccccc2)nc(-c2ccccc2CO)n1` [Ogerin], the “Cell Viability” value (1 µM) is reported as 100.729%.
With `O=C1CCc2cc(Nc3cc(OC4CCOCC4)c([N+](=O)[O-])cc3Cl)ccc2N1` the “Cell Viability” value (1 µM) was 94.8245%.
`COc1cc(Nc2nccc(-c3cnn4nc(OC)ccc34)n2)cc(C(F)(F)F)c1` was tested, and the “Cell Viability” value (1 µM) was 93.0077%.
For `CNC(=O)c1ccc(Nc2ncc(C(F)(F)F)c(NCc3nccnc3N(C)S(C)(=O)=O)n2)cc1` [DEFACTINIB], the “Cell Viability” value (0.1 µM) was 103.534%.
For `Cc1nc(N2CC[C@H](O)C2)ncc1-c1cc(C(F)(F)F)cc2[nH]ncc12`, the “Cell Viability” value (1 µM) was 99.9461%.
With `CNCc1ccccc1-c1csc([C@@H](C)Nc2nc(C)nc3cc(OC)c(OC)cc23)c1` [BAY-293] the “Cell Viability” value (1 µM) was 78.8725%.
`COCCn1c(C)c(C)s/c1=N\C(=O)C1C(C)(C)C1(C)C` was tested, and the “Cell Viability” value (1 µM) was 97.5131%.
For `Cc1cccc(-c2cnc3occ(-c4ccc(C(=O)O)c(C5CCCC5)c4)c3c2)c1`, the “Cell Viability” value (1 µM) was 94.5514%.
